Experimental data taken from US5089504A, “Substituted 4-aminoquinoline derivatives as gastric acid secretion inhibitors” (SmithKline Beckman Intercredit B.V., priority 1988, dated 1992).
Where a name gives a salt, the structure may show the parent alone.

How the values were obtained:
[1] = target: T1, gastrointestinal H^+ K^+ ATPase (Sus scrofa, UniProt P19156); assay: K+-stimulated ATPase activity in lyophilized gastric vesicles (H/K-ATPase); format: biochemical; details: lyophilized pig gastric vesicles, 37° C.; for IC50: K+-stimulated ATPase activity, pH 7.0, 30 minutes
T1 construct: Lyophilized gastric vesicles were prepared from pig fundic mucosa; from tissue; host or cells: pig fundic mucosa (lyophilized gastric vesicles)
T1 sequence (P19156 2-1034 limits assumed): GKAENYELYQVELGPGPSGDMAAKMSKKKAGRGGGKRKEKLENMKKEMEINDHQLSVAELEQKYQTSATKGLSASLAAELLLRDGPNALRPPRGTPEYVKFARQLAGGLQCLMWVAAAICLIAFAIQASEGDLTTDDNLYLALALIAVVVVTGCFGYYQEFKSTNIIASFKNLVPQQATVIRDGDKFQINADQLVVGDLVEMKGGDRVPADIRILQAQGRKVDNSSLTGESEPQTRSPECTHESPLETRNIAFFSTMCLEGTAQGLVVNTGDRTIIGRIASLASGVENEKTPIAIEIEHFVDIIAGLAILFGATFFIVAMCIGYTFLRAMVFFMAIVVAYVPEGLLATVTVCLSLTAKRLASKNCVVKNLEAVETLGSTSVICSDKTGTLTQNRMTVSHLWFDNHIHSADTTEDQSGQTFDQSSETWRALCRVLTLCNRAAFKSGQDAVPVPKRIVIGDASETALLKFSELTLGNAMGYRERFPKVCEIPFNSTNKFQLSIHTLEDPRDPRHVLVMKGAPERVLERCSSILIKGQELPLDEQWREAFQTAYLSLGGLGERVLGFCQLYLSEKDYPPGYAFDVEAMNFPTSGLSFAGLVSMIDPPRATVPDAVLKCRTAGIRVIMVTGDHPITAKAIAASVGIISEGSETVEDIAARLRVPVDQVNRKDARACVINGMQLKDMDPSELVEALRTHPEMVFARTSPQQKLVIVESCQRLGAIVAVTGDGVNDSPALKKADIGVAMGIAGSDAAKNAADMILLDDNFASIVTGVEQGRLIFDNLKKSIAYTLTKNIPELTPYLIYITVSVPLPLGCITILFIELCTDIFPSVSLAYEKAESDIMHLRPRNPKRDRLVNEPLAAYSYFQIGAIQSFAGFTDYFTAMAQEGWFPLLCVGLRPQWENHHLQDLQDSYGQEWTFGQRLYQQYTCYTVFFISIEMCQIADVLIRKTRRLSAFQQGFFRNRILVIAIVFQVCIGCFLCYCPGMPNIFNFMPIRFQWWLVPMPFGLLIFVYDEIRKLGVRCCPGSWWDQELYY
T1 sequence (P18434 whole entry partner): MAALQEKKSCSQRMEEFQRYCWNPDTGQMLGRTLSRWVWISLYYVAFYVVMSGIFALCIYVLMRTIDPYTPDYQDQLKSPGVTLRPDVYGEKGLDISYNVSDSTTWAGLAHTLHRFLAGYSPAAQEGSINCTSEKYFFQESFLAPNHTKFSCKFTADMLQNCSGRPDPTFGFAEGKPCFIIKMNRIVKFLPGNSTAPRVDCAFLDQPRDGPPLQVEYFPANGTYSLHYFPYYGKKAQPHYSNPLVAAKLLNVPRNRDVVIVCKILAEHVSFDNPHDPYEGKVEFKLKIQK
Experimental: The effects of a single high concentration (100 μM) of a compound of structure (I) on K-stimulated ATPase activity in lyophilized gastric vesicles was determined. Preferred compounds of structure (I) were also tested over a range of concentrations to determine IC50 values. Lyophilized gastric vesicles were prepared from pig fundic mucosa after the method of Keeling et. al. (Biochem. Pharmacol., 34, 2967, 1985). K^+ -stimulated ATPase activity was determined at 37° C. in the presence of the following : 10 mM Pipes/Tris buffer pH 7.0, 2 mM MgSO4, 1 mM KCl, 2 mM Na2 ATP and 3-6 μg protein/ml lyophilized gastric vesicles. After incubation for 30 minutes, the inorganic phosphate hydrolyzed from ATP was determined by the method of Yoda and Hokin (Biochem. Biophys. Res. Commun. 40, 880, 1970). Compounds of structure (I) were dissolved in dimethylsulphoxide which up to the highest concentration used had no effect on K^+ -stimulated ATPase activity. The effect of the highest concentration of each compound of structure (I) on the recovery of a standard amount of inorganic phosphate was also determined.

[2] = tested on: pentagastrin stimulated gastric acid secretion; assay: Rat lumen perfused stomach (pentagastrin stimulated gastric acid secretion); format: in vivo; details: iv, 10 μmole/kg
Excerpt: B. Rat Lumen Perfused Stomach ([…] stimulated […] secretion) Using a modification of the procedure described by Ghosh & Schild (Br. J. Pharmacology, 13, 54, 1958), the compounds of the following examples were found on i.v. administration at a concentration of 10 μmole/kg to cause an inhibition of pentagastrin stimulated gastric acid secretion as follows: […]

| Compound | IC50 [1] [nM] | inhibition in vivo at 10 µmol/kg [2] [%] | % inhibition of K+-stimulated ATPase activity (printed in IC50 column as % @ 100) ([1]; @ 100 (μM), pH 7.0) [%] |
| --- | --- | --- | --- |
| CCCC(=O)c1cnc2c(CO)cccc2c1Nc1ccccc1C [Example 1, 3-butyryl-4-(2-methylphenylamino)-8-(hydroxymethyl)quinoline] | 840 | 61 |  |
| CCCC(=O)c1cnc2c(OCCOC)cccc2c1Nc1ccccc1C [Example 2, 3-butyryl-4-(2-methylphenylamino)-8-(2-methoxyethoxy)quinoline] | 2500 | 67 |  |
| CCCC(=O)c1cnc2c(CO)cccc2c1Nc1ccc(O)cc1C [Example 3, 3-butyryl-4-(4-hydroxy-2-methylphenylamino)-8-(hydroxymethyl)quinoline hydrochloride] | 180 | 88 |  |
| CCCC(=O)c1cnc2c(C(C)O)cccc2c1Nc1ccccc1C (stereo not shown) [Example 4, 3-butyryl-4-(2-methylphenylamino)-8-(1-hydroxyethyl)quinoline] | 360 | 63 |  |
| CCCC(=O)c1cnc2ccc(CO)cc2c1Nc1ccccc1C [Example 5, 3-butyryl-4-(2-methylphenylamino)-6-hydroxymethylquinoline] | 4400 | 46 |  |
| CCCC(=O)c1cnc2cc(CO)ccc2c1Nc1ccccc1C [Example 6, 3-butyryl-4-(2-methylphenylamino)-7-hydroxymethylquinoline] |  |  | 44 |
| Cc1ccccc1Nc1c(C(=O)C(C)C)cnc2c(CO)cccc12 [Example 7, 3-isobutyryl-4-(2-methylphenylamino)-8-(hydroxymethyl)quinoline] | 820 | 74 |  |
| Cc1cc(F)ccc1Nc1c(C(=O)C(C)C)cnc2c(CO)cccc12 [Example 8, 3-isobutyryl-4-(4-fluoro-2-methylphenylamino)-8-(hydroxymethyl)quinoline] | 2100 | 76 |  |
| CCCC(=O)c1cnc2c(CO)cccc2c1Nc1ccc(F)cc1C [Example 9, 3-butyryl-4-(4-fluoro-2-methylphenylamino)-8-(hydroxymethyl)quinoline] | 2200 | 55 |  |
| CCCC(=O)c1cnc2c(OCCO)cccc2c1Nc1ccccc1C [Example 10, 3-butyryl-4-(2-methylphenylamino)-8-(2-hydroxyethoxy)quinoline] | 2400 | 68 |  |
| CCCC(=O)c1cnc2c(OCCOCCO)cccc2c1Nc1ccccc1C [Example 11, 3-butyryl-4-(2-methylphenylamino)-8-(2-(2-hydroxyethoxy)ethoxy)quinoline] | 2100 | 77 |  |
| CCCC(=O)c1cnc2c(OCCOCCOCCO)cccc2c1Nc1ccccc1C [Example 12, 3-butyryl-4-(2-methylphenylamino)-8-(2-(2-(2-hydroxyethoxy)ethoxy)ethoxy)quinoline] | 2400 | 57 |  |
| CCCC(=O)c1cnc2c(OCCOCCO)cccc2c1Nc1ccc(F)cc1C [Example 13, 3-butyryl-4-(4-fluoro-2-methylphenylamino)-8-(2-(2-hydroxyethoxy)ethoxy)quinoline] | 4000 | 49 |  |
| CCCC(=O)c1cnc2c(OCCO)cccc2c1Nc1ccc(F)cc1C [Example 14, 3-butyryl-4-(4-fluoro-2-methylphenylamino)-8-(2-hydroxyethoxy)quinoline] | 2700 | 79 |  |
| CCCC(=O)c1cnc2c(C(C)O)cccc2c1Nc1ccc(O)cc1C (stereo not shown) [Example 15, 3-butyryl-4-(4-hydroxy-2-methylphenylamino)-8-(1-hydroxyethyl)quinoline] | 60 | 70 |  |
| Cc1cc(O)ccc1Nc1c(C(=O)C(C)C)cnc2c(CO)cccc12 [Example 16, 3-isobutyryl-4-(4-hydroxy-2-methylphenylamino)-8-(hydroxymethyl)quinoline hydrochloride] | 40 | 91 |  |
